The text below walks through data of PMC6457931 (Science Advances, 2019).

The test system of data set [1] is pseudotyped OC43. Particulars: 48 h.
The test system of data set [2] is 229E.
Data set [3] concerns NL63. As to conditions: read-out: IC50, live NL63 infection; LLC-MK2 cells.
The test system of data set [4] is pseudotyped 229E. As to conditions: 48 h.
Data set [5] relates to pseudotyped NL63. As to conditions: 48 h.
The subject of data set [6] is OC43. As to conditions: read-out: IC50, live OC43 infection; HCT-8 cells, 100 TCID50, day 5.
For data set [7], the system named is S proteins of multiple HCoVs. It counts as cell-based.
For data set [8], the target named is NL63 S protein (Human coronavirus NL63, UniProt Q6Q1S2). Description: cell-based. The arrangement: species or system HCoV-NL63.
Sequence of NL63 S protein (Q6Q1S2 19-1338 limits assumed): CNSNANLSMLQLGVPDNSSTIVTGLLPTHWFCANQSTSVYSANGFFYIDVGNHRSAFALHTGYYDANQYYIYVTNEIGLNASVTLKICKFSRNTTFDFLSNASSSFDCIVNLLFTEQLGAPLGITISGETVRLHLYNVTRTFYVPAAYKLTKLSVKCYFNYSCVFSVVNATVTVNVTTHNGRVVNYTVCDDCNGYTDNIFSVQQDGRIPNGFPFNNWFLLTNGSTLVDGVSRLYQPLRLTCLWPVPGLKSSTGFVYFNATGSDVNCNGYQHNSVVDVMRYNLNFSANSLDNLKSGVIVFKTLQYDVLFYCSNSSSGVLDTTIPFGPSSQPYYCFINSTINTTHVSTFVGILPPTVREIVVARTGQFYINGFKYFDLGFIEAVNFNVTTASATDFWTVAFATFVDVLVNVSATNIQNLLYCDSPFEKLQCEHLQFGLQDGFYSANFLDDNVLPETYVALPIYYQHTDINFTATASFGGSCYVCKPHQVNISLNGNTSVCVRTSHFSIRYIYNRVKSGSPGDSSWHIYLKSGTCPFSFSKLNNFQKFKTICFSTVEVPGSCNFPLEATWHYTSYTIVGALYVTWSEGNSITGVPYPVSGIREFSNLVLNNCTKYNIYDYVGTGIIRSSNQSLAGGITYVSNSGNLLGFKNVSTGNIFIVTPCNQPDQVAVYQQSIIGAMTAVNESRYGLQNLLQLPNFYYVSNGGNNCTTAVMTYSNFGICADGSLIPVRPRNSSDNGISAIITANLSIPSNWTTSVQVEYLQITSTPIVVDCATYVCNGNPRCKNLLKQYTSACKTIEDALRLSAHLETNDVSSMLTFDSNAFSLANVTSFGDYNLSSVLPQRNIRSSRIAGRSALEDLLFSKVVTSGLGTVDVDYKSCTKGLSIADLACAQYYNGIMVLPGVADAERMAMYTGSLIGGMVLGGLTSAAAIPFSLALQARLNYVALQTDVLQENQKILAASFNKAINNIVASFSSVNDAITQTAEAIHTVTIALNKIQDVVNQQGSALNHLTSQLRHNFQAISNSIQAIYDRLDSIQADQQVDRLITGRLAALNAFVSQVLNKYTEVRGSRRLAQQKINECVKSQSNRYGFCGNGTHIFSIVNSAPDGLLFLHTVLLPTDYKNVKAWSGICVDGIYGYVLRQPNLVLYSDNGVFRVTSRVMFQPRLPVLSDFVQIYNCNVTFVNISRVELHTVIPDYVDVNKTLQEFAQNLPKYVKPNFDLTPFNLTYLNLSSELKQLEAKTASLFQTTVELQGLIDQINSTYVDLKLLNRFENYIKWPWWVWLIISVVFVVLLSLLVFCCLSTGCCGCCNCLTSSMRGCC
Data set [9] addresses 229E S protein (Human coronavirus 229E, UniProt P15423). Description: cell-based. Further details: species or system HCoV-229E.
Data set [10] has as its target HR1 domain of MERS-CoV S protein (residues 984 to 1062) (MERS-CoV) (UniProt K9N5Q8).
Data set [11] concerns the target HR1 domain of SARS-CoV S protein (residues 892 to 970) (SARS-CoV) (UniProt P59594).
For data set [12], the target named is HR1 domain of HCoV-229E S protein (residues 785 to 873) (HCoV-229E) (UniProt P15423).
Sequence of HR1 domain of HCoV-229E S protein (residues 785 to 873) (HCoV-229E) (P15423 785-873): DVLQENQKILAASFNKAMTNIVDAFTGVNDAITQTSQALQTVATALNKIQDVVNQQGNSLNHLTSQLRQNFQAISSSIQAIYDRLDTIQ
The target in data set [13] is OC43 S protein (Human coronavirus OC43, UniProt P36334). Description: cell-based. Particulars: Inhibitory activity of peptides, IC50, HCoV-OC43 cell-cell fusion assay.
Sequence of OC43 S protein (P36334 14-1336 limits assumed): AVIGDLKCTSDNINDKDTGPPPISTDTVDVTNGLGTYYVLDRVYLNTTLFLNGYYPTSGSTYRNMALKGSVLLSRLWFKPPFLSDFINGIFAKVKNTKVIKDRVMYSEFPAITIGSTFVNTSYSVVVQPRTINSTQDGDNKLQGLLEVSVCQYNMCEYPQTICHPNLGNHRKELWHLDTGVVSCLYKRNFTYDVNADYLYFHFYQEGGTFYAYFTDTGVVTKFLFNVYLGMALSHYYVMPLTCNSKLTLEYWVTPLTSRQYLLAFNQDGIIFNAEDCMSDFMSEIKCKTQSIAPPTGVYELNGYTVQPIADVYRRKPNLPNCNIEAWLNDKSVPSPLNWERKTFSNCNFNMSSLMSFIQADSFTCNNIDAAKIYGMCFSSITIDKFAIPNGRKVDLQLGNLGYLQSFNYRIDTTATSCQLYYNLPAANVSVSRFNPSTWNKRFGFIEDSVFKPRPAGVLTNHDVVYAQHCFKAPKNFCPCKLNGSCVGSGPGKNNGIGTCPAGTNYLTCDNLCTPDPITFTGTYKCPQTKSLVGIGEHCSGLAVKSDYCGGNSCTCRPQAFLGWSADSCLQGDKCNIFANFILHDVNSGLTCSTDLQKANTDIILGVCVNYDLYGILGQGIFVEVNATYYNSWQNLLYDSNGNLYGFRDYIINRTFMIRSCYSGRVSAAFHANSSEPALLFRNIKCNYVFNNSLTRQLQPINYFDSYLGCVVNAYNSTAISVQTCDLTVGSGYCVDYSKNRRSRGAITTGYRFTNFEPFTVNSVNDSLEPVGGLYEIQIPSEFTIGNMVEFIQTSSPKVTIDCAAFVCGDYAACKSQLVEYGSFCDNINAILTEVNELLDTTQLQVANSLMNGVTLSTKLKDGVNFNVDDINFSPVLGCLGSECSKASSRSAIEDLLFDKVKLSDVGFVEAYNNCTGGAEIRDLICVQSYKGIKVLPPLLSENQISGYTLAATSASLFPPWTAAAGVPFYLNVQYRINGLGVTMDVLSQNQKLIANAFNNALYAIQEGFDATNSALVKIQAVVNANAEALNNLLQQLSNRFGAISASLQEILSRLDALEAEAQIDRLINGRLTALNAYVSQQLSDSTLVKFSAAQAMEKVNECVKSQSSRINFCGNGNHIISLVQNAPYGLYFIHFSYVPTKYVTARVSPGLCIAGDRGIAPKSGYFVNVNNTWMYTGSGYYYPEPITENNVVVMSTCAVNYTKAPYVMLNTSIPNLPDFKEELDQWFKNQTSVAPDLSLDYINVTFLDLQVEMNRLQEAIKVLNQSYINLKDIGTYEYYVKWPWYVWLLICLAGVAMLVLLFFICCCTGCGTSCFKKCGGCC
Where [14] appears, read: high or low dose, before and 1, 3, 5 days after final treatment, P > 0.05.

The IC50 is the concentration at which inhibition is half-maximal.

Sequence of 229E S protein (P15423 16-1173 limits assumed): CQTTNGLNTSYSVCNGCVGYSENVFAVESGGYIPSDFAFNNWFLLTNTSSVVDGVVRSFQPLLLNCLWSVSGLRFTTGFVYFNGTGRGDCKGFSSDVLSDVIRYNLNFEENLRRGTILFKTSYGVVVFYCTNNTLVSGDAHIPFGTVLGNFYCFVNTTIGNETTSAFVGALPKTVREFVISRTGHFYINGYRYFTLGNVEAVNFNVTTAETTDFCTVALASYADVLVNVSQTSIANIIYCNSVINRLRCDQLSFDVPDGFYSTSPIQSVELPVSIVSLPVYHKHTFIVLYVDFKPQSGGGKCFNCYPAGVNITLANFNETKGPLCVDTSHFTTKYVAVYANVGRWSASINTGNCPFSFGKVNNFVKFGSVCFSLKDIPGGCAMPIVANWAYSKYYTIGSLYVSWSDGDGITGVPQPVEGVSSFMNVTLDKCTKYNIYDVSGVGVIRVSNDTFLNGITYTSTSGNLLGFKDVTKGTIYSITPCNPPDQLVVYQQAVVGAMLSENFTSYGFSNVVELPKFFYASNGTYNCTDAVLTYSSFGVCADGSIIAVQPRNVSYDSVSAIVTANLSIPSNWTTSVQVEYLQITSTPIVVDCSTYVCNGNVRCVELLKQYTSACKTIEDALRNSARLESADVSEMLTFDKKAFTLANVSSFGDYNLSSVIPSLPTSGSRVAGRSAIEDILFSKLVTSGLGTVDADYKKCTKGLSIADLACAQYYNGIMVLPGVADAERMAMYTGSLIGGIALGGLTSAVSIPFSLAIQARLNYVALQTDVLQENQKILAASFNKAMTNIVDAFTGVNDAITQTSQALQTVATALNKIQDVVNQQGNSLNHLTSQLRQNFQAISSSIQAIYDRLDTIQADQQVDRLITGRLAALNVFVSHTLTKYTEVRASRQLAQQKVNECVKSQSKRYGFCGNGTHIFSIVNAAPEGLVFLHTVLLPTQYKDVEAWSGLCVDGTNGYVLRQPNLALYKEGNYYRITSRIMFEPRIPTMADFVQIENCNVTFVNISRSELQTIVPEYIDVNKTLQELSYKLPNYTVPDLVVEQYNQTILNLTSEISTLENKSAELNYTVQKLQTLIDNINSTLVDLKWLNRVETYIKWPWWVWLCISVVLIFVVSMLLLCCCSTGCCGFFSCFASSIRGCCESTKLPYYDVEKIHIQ
Sequence of HR1 domain of MERS-CoV S protein (residues 984 to 1062) (MERS-CoV) (K9N5Q8 984-1062): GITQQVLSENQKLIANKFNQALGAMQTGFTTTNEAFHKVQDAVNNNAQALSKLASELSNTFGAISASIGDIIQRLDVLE

`CC[C@H](C)[C@H](NC(=O)[C@H](C)NC(=O)[C@H](CCC(=O)O)NC(=O)[C@H](CCC(=O)O)NC(=O)[C@H](CC(C)C)NC(=O)[C@H](CCCCN)NC(=O)[C@H](CCCCN)NC(=O)[C@H](CCSC)NC(=O)[C@H](CCC(=O)O)NC(=O)[C@H](Cc1ccc(O)cc1)NC(=O)[C@H](CCC(=O)O)NC(=O)[C@H](CC(C)C)NC(=O)[C@H](CC(=O)O)NC(=O)[C@H](CC(C)C)NC(=O)[C@H](Cc1ccccc1)NC(=O)[C@@H](NC(=O)[C@@H](NC(=O)[C@H](CC(N)=O)NC(=O)[C@@H](NC(=O)[C@H](CCC(N)=O)NC(=O)[C@H](CC(=O)O)NC(=O)[C@H](CC(C)C)NC(=O)[C@@H](N)CO)[C@@H](C)CC)C(C)C)[C@@H](C)O)C(=O)N[C@@H](CCCCN)C(=O)N[C@@H](CCCCN)C(=O)N[C@@H](CC(C)C)C(=O)N[C@@H](CCC(=O)O)C(=O)N[C@@H](CCC(=O)O)C(=O)N[C@@H](CO)C(=O)N[C@@H](Cc1ccc(O)cc1)C(=O)N[C@H](C(=O)N[C@@H](CC(=O)O)C(=O)N[C@@H](CC(C)C)C(=O)N[C@@H](CCCCN)C(=O)N[C@@H](CCC(=O)O)C(=O)N[C@@H](CC(C)C)C(=O)O)[C@@H](C)CC` [EK1]: the IC50 stood at 1810 nM in data set [1]; 690 nM in [2]; 480 nM in data set [3]; 3.35 µM in [4]; 6.02 µM in data set [5]; 620 nM in [6]. Moreover, the “EK1-specific antibodies in sera (ELISA)” value (2 weeks after intranasal administration) is listed as “No EK1-specific antibodies were detected”. Further, where the note is “20 or 100 mg/kg intranasal every day for 1 week, followed 2 weeks”, the “weight gain/loss compared to PBS-treated mice” value is reported as “no apparent difference”. Also, the “histopathology of lung, liver, kidney, and spleen sections” value (hematoxylin and eosin, 4 weeks after administration) was “no pathological abnormality”. For the same compound, the “alanine aminotransferase (ALT) in sera versus PBS-treated group” value under setting [14] is listed as “no significant difference”. Further, the “creatinine in sera versus PBS-treated group” value under setting [14] was “no significant difference”.

Regarding `CC[C@H](C)[C@H](NC(=O)[C@H](CC(C)C)NC(=O)CNC(=O)[C@H](CCC(N)=O)NC(=O)[C@H](CC(C)C)NC(=O)[C@H](CCC(=O)O)NC(=O)[C@@H](NC(=O)[C@@H](NC(=O)[C@@H](NC(=O)[C@H](CCC(N)=O)NC(=O)[C@H](Cc1ccccc1)NC(=O)[C@H](CC(C)C)NC(=O)[C@H](CO)NC(=O)[C@H](C)NC(=O)[C@@H](NC(=O)[C@H](CCCCN)NC(=O)[C@H](C)NC(=O)[C@H](CCC(=O)O)NC(=O)[C@H](CC(C)C)NC(=O)[C@H](CCC(N)=O)NC(=O)[C@H](CCCCN)NC(=O)[C@H](CC(C)C)NC(=O)[C@H](CCC(=O)O)NC(=O)[C@H](CO)NC(=O)[C@H](CO)NC(=O)[C@H](CC(C)C)NC(=O)[C@H](CC(N)=O)NC(=O)[C@H](CC(C)C)NC(=O)[C@H](Cc1ccc(O)cc1)NC(=O)[C@@H](NC(=O)[C@H](CC(C)C)NC(=O)[C@H](CC(N)=O)NC(=O)[C@H](Cc1ccccc1)NC(=O)[C@@H]1CCCN1C(=O)[C@@H](NC(=O)[C@H](CC(C)C)NC(=O)[C@@H](N)CC(=O)O)[C@@H](C)O)[C@@H](C)O)[C@@H](C)O)[C@@H](C)O)[C@@H](C)O)C(C)C)C(=O)N[C@@H](CC(=O)O)C(=O)N[C@@H](CCC(N)=O)C(=O)N[C@H](C(=O)N[C@@H](CC(N)=O)C(=O)N[C@@H](CO)C(=O)N[C@H](C(=O)N[C@@H](Cc1ccc(O)cc1)C(=O)N[C@H](C(=O)N[C@@H](CC(=O)O)C(=O)N[C@@H](CC(C)C)C(=O)N[C@@H](CCCCN)C(=O)N[C@@H](CC(C)C)C(=O)N[C@@H](CC(C)C)C(=O)O)C(C)C)[C@@H](C)O)[C@@H](C)CC` [NL63-HR2P], in data set [7], the “Inhibitory activity against β-HCoVs (MERS-CoV, SARS-CoV, OC43) S-mediated fusion” value was “no effective inhibitory activity”.

As for `CC[C@H](C)[C@H](NC(=O)[C@H](C)NC(=O)[C@H](CC(=O)O)NC(=O)[C@H](CC(N)=O)NC(=O)[C@@H](NC(=O)CNC(=O)[C@@H](NC(=O)[C@H](Cc1ccccc1)NC(=O)[C@H](C)NC(=O)[C@H](CC(=O)O)NC(=O)[C@@H](NC(=O)[C@@H](NC(=O)[C@H](CC(N)=O)NC(=O)[C@@H](NC(=O)[C@H](CCSC)NC(=O)[C@H](C)NC(=O)[C@H](CCCCN)NC(=O)[C@H](CC(N)=O)NC(=O)[C@H](Cc1ccccc1)NC(=O)[C@H](CO)NC(=O)[C@H](C)NC(=O)[C@H](C)N)[C@@H](C)O)[C@@H](C)CC)C(C)C)[C@@H](C)O)C(C)C)C(=O)N[C@H](C(=O)N[C@@H](CCC(N)=O)C(=O)N[C@H](C(=O)N[C@@H](CO)C(=O)N[C@@H](CCC(N)=O)C(=O)N[C@@H](C)C(=O)N[C@@H](CC(C)C)C(=O)N[C@@H](CCC(N)=O)C(=O)N[C@H](C(=O)N[C@H](C(=O)N[C@@H](C)C(=O)N[C@H](C(=O)N[C@@H](C)C(=O)N[C@@H](CC(C)C)C(=O)N[C@@H](CC(N)=O)C(=O)N[C@@H](CCCCN)C(=O)N[C@H](C(=O)N[C@@H](CCC(N)=O)C(=O)N[C@@H](CC(=O)O)C(=O)N[C@H](C(=O)N[C@H](C(=O)N[C@@H](CC(N)=O)C(=O)N[C@@H](CCC(N)=O)C(=O)N[C@@H](CCC(N)=O)C(=O)NCC(=O)N[C@@H](CC(N)=O)C(=O)N[C@@H](CO)C(=O)N[C@@H](CC(C)C)C(=O)N[C@@H](CC(N)=O)C(=O)N[C@@H](Cc1c[nH]cn1)C(=O)N[C@@H](CC(C)C)C(=O)N[C@H](C(=O)N[C@@H](CO)C(=O)N[C@@H](CCC(N)=O)C(=O)O)[C@@H](C)O)C(C)C)C(C)C)[C@@H](C)CC)[C@@H](C)O)C(C)C)[C@@H](C)O)[C@@H](C)O)[C@@H](C)O` [229E-HR1P], in data set [8], the “Inhibitory effects on NL63-S-mediated cell-cell fusion” value is on record as “moderate inhibitory effects”. For the same compound, in [9], the “Inhibitory effects on 229E-S-mediated cell-cell fusion” value is reported as “moderate inhibitory effects”.

In turn, OC43-HR2P (peptide) showed an IC50 of inhibition of MERS-CoV S-mediated cell-cell fusion in data set [10] of 0.39 µM. This compound also registered an IC50 of inhibition of SARS-CoV S-mediated cell-cell fusion in data set [11] of 0.54 µM. In data set [12], this compound had an IC50 of inhibition of 229E S-mediated cell-cell fusion of 0.84 µM.

On to `CC[C@H](C)[C@H](NC(=O)[C@H](CC(N)=O)NC(=O)[C@H](CC(=O)O)NC(=O)[C@@H](NC(=O)[C@H](CC(C)C)NC(=O)[C@@H](NC(=O)[C@H](CCC(N)=O)NC(=O)[C@H](CC(C)C)NC(=O)[C@H](CCCCN)NC(=O)[C@H](CCC(N)=O)NC(=O)[C@@H](NC(=O)[C@@H](NC(=O)[C@H](Cc1ccc(O)cc1)NC(=O)[C@H](CC(N)=O)NC(=O)[C@H](CC(C)C)NC(=O)[C@H](CCC(=O)O)NC(=O)[C@H](C)NC(=O)[C@H](CO)NC(=O)[C@H](CCCCN)NC(=O)[C@H](CC(N)=O)NC(=O)[C@H](CCC(=O)O)NC(=O)[C@H](CC(C)C)NC(=O)[C@@H](NC(=O)[C@H](CO)NC(=O)[C@@H](NC(=O)[C@H](CCC(=O)O)NC(=O)[C@H](CO)NC(=O)[C@@H](NC(=O)[C@H](CC(C)C)NC(=O)[C@H](CC(N)=O)NC(=O)[C@H](CC(C)C)NC(=O)[C@@H](NC(=O)[C@@H](NC(=O)[C@H](CCC(N)=O)NC(=O)[C@H](CC(N)=O)NC(=O)[C@H](Cc1ccc(O)cc1)NC(=O)[C@H](CCC(N)=O)NC(=O)[C@H](CCC(=O)O)NC(=O)[C@@H](NC(=O)[C@@H](N)C(C)C)C(C)C)[C@@H](C)O)[C@@H](C)CC)[C@@H](C)O)[C@@H](C)CC)[C@@H](C)O)[C@@H](C)O)C(C)C)[C@@H](C)O)[C@@H](C)CC)C(=O)N[C@@H](CC(N)=O)C(=O)N[C@@H](CO)C(=O)N[C@H](C(=O)N[C@@H](CC(C)C)C(=O)N[C@H](C(=O)N[C@@H](CC(=O)O)C(=O)N[C@@H](CC(C)C)C(=O)N[C@@H](CCCCN)C(=O)N[C@@H](Cc1c[nH]c2ccccc12)C(=O)N[C@@H](CC(C)C)C(=O)O)C(C)C)[C@@H](C)O` [229E-HR2P], for which the “Inhibitory activity against β-HCoVs (MERS-CoV, SARS-CoV, OC43) S-mediated fusion” value in data set [7] is listed as “no effective inhibitory activity”. Further, in data set [2], half-maximal inhibition (IC50) required 560 nM.

For `CC[C@H](C)[C@H](NC(=O)[C@H](CC(=O)O)NC(=O)[C@H](CCCCN)NC(=O)[C@H](CC(C)C)NC(=O)[C@H](CC(N)=O)NC(=O)[C@@H](NC(=O)[C@H](Cc1ccc(O)cc1)NC(=O)[C@H](CO)NC(=O)[C@H](CCC(N)=O)NC(=O)[C@H](CC(N)=O)NC(=O)[C@H](CC(C)C)NC(=O)[C@@H](NC(=O)[C@H](CCCCN)NC(=O)[C@@H](NC(=O)[C@H](C)NC(=O)[C@H](CCC(=O)O)NC(=O)[C@H](CCC(N)=O)NC(=O)[C@H](CC(C)C)NC(=O)[C@H](CCCNC(=N)N)NC(=O)[C@H](CC(N)=O)NC(=O)[C@H](CCSC)NC(=O)[C@H](CCC(=O)O)NC(=O)[C@H](CC(=O)O)NC(=O)[C@H](CCC(N)=O)NC(=O)[C@H](CC(C)C)NC(=O)[C@H](CC(=O)O)NC(=O)[C@H](CC(C)C)NC(=O)[C@H](Cc1ccccc1)NC(=O)[C@@H](NC(=O)[C@@H](NC(=O)[C@H](CC(N)=O)NC(=O)[C@@H](NC(=O)[C@H](Cc1ccc(O)cc1)NC(=O)[C@H](CC(=O)O)NC(=O)[C@H](CC(C)C)NC(=O)[C@@H](N)CO)[C@@H](C)CC)C(C)C)[C@@H](C)O)[C@@H](C)CC)C(C)C)[C@@H](C)CC)C(=O)O` [OC43-HR2P], the IC50 in [8] (Inhibitory activity of peptides, IC50, HCoV-NL63 cell-cell fusion assay) came out at 940 nM; in data set [13] it was 660 nM; in [6], 930 nM; in [9] (Inhibitory activity of peptides, IC50, HCoV-229E cell-cell fusion assay), 840 nM.
